40 compounds from patent publication US10968193B2, “Antidiabetic bicyclic compounds” (Merck Sharp & Dohme Corp., priority 2014, dated 2021) can be followed below.

T1 sequence (O14842 whole entry): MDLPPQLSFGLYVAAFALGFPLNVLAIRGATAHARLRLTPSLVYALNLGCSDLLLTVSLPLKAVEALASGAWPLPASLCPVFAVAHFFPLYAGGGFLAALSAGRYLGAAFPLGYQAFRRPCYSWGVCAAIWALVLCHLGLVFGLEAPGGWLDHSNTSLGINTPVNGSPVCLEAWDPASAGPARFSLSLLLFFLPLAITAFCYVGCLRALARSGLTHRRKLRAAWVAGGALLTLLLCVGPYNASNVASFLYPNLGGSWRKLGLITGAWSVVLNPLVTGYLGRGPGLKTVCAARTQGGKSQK

The assay has as its target T1, human GPR40 (Homo sapiens, UniProt O14842).
T1 construct: expressed in transfected cells; host or cells: HEK cells stably expressing the aequorin reporter
Briefly: Inositol Phosphate Turnover (IP1) Assay 3. It counts as cell-based. The settings on record: HEK cells stably expressing human GPR40. As for the experimental part:
Human and mouse GPR40 stable cell-lines were generated in CHO cells stably expressing NFAT BLA (Beta-lactamase). A human GPR40 stable cell-line was generated in HEK cells stably expressing the aequorin expressing reporter. The expression plasmids were transfected using lipofectamine (Life Technologies) following manufacturer's instructions. Stable cell-lines were generated following drug selection.
Inositol Phosphate Turnover (IP1) Assay 3:
The assay was performed in 384-well format. HEK cells stably expressing human GPR40 were plated at 7500 cells per well in growth medium (DMEM/10% fetal calf serum). Cell plates were then incubated 16 hours at 37 degrees in a 5% CO2 incubator.
Measurement of Inositol Phosphate Turnover (IP) was performed using the CisBio IP-One kit (Part number 62IPAPEB). After the 16 hour incubation, the growth media was removed by centrifugation using the BlueWasher (AusWasher GUI Ver. v1.0.1.8) Protocol #21—“Light Dry” and 10 ul of stimulation buffer (prepared as described in the kit) was added to each well. In a separate plate, compounds were diluted in DMSO (200-fold over the final concentration in the assay well) and 50 nl was acoustically transferred to the appropriate well in the assay cell plate. The plates were then incubated for 60 minutes at 37 degrees in a 5% CO2 incubator. 10 ul of detection buffer (also prepared as described in the IP-One kit) was added to each well and the plates were incubated at rt for 60 minutes in the dark. The plates were then read in a Perkin Elmer EnVision or equivalent reader able to measure FRET. Fluorescent ratio of emission at 665 and 620 nm was then converted to IP1 concentration by back calculating from an IP1 standard curve prepared at the time of the assay. Data is normalized to % activity using a reference compound and EC50s determined using a standard 4-parameter fit.
The EC50 is the concentration that produces a half-maximal response. Read a high EC50 as a need for much substance. For the compound `COc1cc(-c2ccc(C3CCc4ccc([C@H](C5CC5)[C@H](C)C(=O)O)c(F)c4O3)cc2CN2CCCC2)c(F)cn1` (single isomer, unassigned) [Example 199], the EC50 is 5.7 nM. For the compound `COc1cc(-c2ccc([C@@H]3CCc4ccc([C@H](C5CC5)[C@H](C)C(=O)O)cc4O3)cc2CN(C(C)C)C(C)C)c(F)cn1` [Example 225, Sodium (2S,3R)-3-cyclopropyl-3-((S)-2-(3-((diisopropylamino)methyl)-4-(5-fluoro-2-methoxypyridin-4-yl)phenyl)chroman-7-yl)-2-methylpropanoate], a half-maximal response (EC50) required 0.07 nM. In the case of `COc1cc(-c2ccc(C3CCc4ccc([C@H](C5CC5)[C@H](C)C(=O)O)cc4O3)cc2CN(C)C(C)C)c(F)cn1` (stereo partly shown) [Example 254] it was 1 nM; in that of `COc1cc(-c2ccc(C3CCc4ccc([C@H](C5CC5)[C@H](C)C(=O)O)cc4O3)cc2CN(C)C(C)(C)C)ccn1` (stereo partly shown) [Example 234], 21 nM.

With `C[C@H](C(=O)O)[C@H](c1ccc2c(c1)OC(c1ccc(-c3cc(O)ncc3C#N)c(CN3CCCCC34CC4)c1)CC2)C1CC1` (stereo partly shown) [Example 295], the EC50 is 85 nM. The same measure for `COc1cc(-c2ccc(C3CCc4ccc([C@H](C5CCC5)[C@H](C)C(=O)O)cc4O3)cc2CN2CCCCC2)c(F)cn1` (single isomer, unassigned) [Example 104]: 1.1 nM; for `CCN(Cc1cc(C2CCc3ccc([C@H](C4CC4)[C@H](C)C(=O)O)cc3O2)c(F)cc1-c1ccnc(OC)c1)C(C)C` (single isomer, unassigned) [Example 185]: 4.4 nM; for `COc1cc(-c2ccc(C3CCc4ccc([C@H](C5CC5)[C@H](C)C(=O)O)cc4O3)cc2CN2CCC3(CC2)CC3)c(F)cn1` (stereo partly shown) [Example 261]: 0.6 nM. In the case of `COc1cc(-c2ccc(C3CCc4ccc([C@H](C5CC5)[C@H](C)C(=O)O)cc4O3)cc2CN(C)C(C)(C)C)c(C#N)cn1` (single isomer, unassigned) [Example 194] it was 1.1 nM; in that of `CCN(C(C)C)C(C)c1cc(C2CCc3ccc([C@H](C4CC4)[C@H](C)C(=O)O)cc3O2)ccc1-c1ccnc(OC)c1` (single isomer, unassigned) [Example 247], 1.3 nM.

`CCOc1cc(-c2ccc(C3CCc4ccc([C@H](C5CC5)[C@H](C)C(=O)O)cc4O3)c(CN(C)C(C)(C)C)c2)c(F)cn1` (mixture of isomers) [Example 132] returned an EC50 of 4.8 nM. The same measure for `COc1cc(-c2ccc(C3CCc4ccc([C@H](C5CCC5)[C@H](C)C(=O)O)cc4O3)cc2CN2[C@H](C)CC[C@H]2C)c(F)cn1` (single isomer, unassigned) [Example 96]: 0.06 nM.

On to `COc1cc(-c2ccc(C3CCc4ccc([C@H](C5CC5)[C@H](C)C(=O)O)cc4O3)c(CN3CCC[C@@H]3C)c2)ccn1` (single isomer, unassigned) [Example 118b], for which the EC50 amounted to 109 nM. In the case of `COc1cc(-c2ccc(C3CCc4ccc([C@H](C5CC5)[C@H](C)C(=O)O)cc4O3)c(CN3CCCCC3(C)C)c2)c(F)cn1` (mixture of isomers) [Example 128] it was 0.16 nM. The same measure for `COc1cc(-c2ccc(C3CCc4ccc([C@H](C5CC5)[C@H](C)C(=O)O)cc4O3)c(CN3CCCC[C@H]3C)c2)ccn1` (mixture of isomers) [Example 120]: 0.7 nM; for `COc1cc(-c2ccc(C3CCc4ccc([C@H](C5CC5)[C@H](C)C(=O)O)cc4O3)cc2CN2CCCC23COC3)c(F)cn1` (stereo partly shown) [Example 265]: 0.2 nM. `CCN(Cc1cc(C2CCc3ccc([C@H](C4CC4)[C@H](C)C(=O)O)cc3O2)ccc1-c1cc(OC)ncc1F)C(C)C` (stereo partly shown) [Example 255] had an EC50 of 0.3 nM. Compound `COc1cc(-c2ccc(C3CCc4ccc([C@H](C5CC5)[C@H](C)C(=O)O)cc4O3)c(CN3[C@H](C)CC[C@H]3C)c2)ccn1` (single isomer, unassigned) [Example 116b] showed an EC50 of 1 nM. Turning to `CCN(CC)Cc1cc(C2CCc3ccc([C@H](C4CC4)[C@H](C)C(=O)O)cc3O2)c(F)cc1-c1ccnc(OC)c1` (single isomer, unassigned) [Example 182], the EC50 was found to be 16 nM. The same measure for `COc1cc(-c2ccc(C3CCc4ccc([C@H](C5CC5)[C@H](C)C(=O)O)cc4O3)c(CN3CCC[C@@H]3C)c2)c(F)cn1` (single isomer, unassigned) [Example 129b]: 36 nM.

Compound `COc1cc(-c2ccc(C3CCc4ccc([C@H](C5CC5)[C@H](C)C(=O)O)cc4O3)c(CN3CCCC[C@@H]3C)c2)c(F)cn1` (stereo partly shown) [Example 131] showed an EC50 of 0.09 nM.

In turn, `CCN(Cc1cc(C2CCc3ccc([C@H](C4CC4)[C@H](C)C(=O)O)cc3O2)c(F)cc1-c1ccnc(OC)c1)C(C)C` (single isomer, unassigned) [Example 186] returned an EC50 of 7.9 nM.

The compound `COc1cc(-c2ccc(C3CCc4ccc([C@H](C5CC5)[C@H](C)C(=O)O)cc4O3)c(CN3CCCC[C@@H]3C)c2)ccn1` (stereo partly shown) [Example 121] yielded an EC50 of 0.4 nM. `CCOc1cc(-c2ccc(C3CCc4ccc([C@H](C5CC5)[C@H](C)C(=O)O)cc4O3)cc2CN2CCCC2)c(Cl)cn1` (single isomer, unassigned) [Example 218]: a half-maximal effect (EC50) was put at 10 nM. For `CCN(CC)Cc1cc(C2CCc3ccc([C@H](C4CC4)[C@H](C)C(=O)O)cc3O2)ncc1-c1cc(OC)ncc1F` (single isomer, unassigned) [Example 86], the EC50 came to 1.4 nM. The same measure for `COc1cc(-c2ccc(C3CCc4ccc([C@H](C5CC5)[C@H](C)C(=O)O)cc4O3)cc2CN2CC3CC3C2)c(C#N)cn1` (stereo partly drawn) [Example 191, (2S, 3R)-3-(2-(3-(3-azabicyclo[3.1.0]hexan-3-ylmethyl)-4-(5-cyano-2-methoxypyridin-4-yl)phenyl)chroman-7-yl)-3-cyclopropyl-2-methylpropanoic acid]: 1.9 nM.

`CCN(CC)C(C)c1cc(C2CCc3ccc([C@H](C4CC4)[C@H](C)C(=O)O)cc3O2)ccc1-c1cc(OC)ncc1F` (single isomer, unassigned) [Example 244] had an EC50 of 0.43 nM. The same measure for `COc1cc(-c2ccc(C3CCc4ccc([C@H](C5CC5)[C@H](C)C(=O)O)cc4O3)c(CN3CCCC[C@H]3C)c2)c(F)cn1` (single isomer, unassigned) [Example 130b]: 0.06 nM. The same measure for `COc1cc(-c2ccc([C@@H]3CCc4ccc([C@H](C5CC5)[C@H](C)C(=O)O)cc4O3)cc2CN(C)C(C)(C)C)c(F)cn1` [Example 226, Sodium (2S,3R)-3-((S)-2-(3-((tert-butyl(methyl)amino)methyl)-4-(5-fluoro-2-methoxypyridin-4-yl)phenyl)chroman-7-yl)-3-cyclopropyl-2-methylpropanoate]: 1.1 nM; for `COc1cc(-c2ccc(C3CCc4ccc([C@H](C5CC5)[C@H](C)C(=O)O)cc4O3)c(CN(C)C(C)(C)C)c2)c(F)cn1` (mixture of isomers) [Example 125]: 2.2 nM; for `CCC1CCCCN1Cc1cc(C2CCc3ccc(C(C4CC4)C(C)C(=O)O)cc3O2)ccc1-c1ccnc(OC)c1` (single isomer, unassigned) [Example 258b]: 2.2 nM. For `COc1cc(-c2ccc(C3CCc4ccc([C@H](C5CC5)[C@H](C)C(=O)O)cc4O3)c(CN(C(C)C)C(C)C)c2)ccn1` (single isomer, unassigned) [Example 115b], the EC50 worked out at 5.3 nM.

The compound `COc1cc(-c2ccc(C3CCc4ccc([C@H](C5CCC5)[C@H](C)C(=O)O)cc4O3)cc2CN2CCCC2C)c(F)cn1` (single isomer, unassigned) [Example 100] registered an EC50 of 0.14 nM. With `COc1cc(-c2ccc(C3CCc4ccc([C@H](C5CC5)[C@H](C)C(=O)O)cc4O3)cc2CN(C(C)C)C(C)(C)C)c(F)cn1` (stereo partly shown) [Example 229], a half-maximal response (EC50) required 0.07 nM. As to `COc1cc(-c2cc(F)c(C3CCc4ccc([C@H](C5CC5)[C@H](C)C(=O)O)cc4O3)cc2CN2CCCCC23CC3)ccn1` (single isomer, unassigned) [Example 188], a half-maximal response (EC50) required 0.7 nM. In the case of `COc1cc(-c2ccc(C3CCc4ccc([C@H](C5CC5)[C@H](C)C(=O)O)cc4O3)c(CN(C)C(C)(C)C)c2)c(F)cn1` (single isomer, unassigned) [Example 125a] it was 0.3 nM; in that of `COc1cc(-c2ccc(C3CCc4ccc([C@H](C5CC5)[C@H](C)C(=O)O)c(F)c4O3)cc2CN2CCC[C@H]2C)c(F)cn1` (single isomer, unassigned) [Example 211], 2.1 nM; in that of `COc1cc(-c2ccc(C3CCc4ccc([C@H](C5CC5)[C@H](C)C(=O)O)cc4O3)cc2CN2CCCCC23CC3)c(C#N)cn1` (stereo partly shown) [Example 293], 0.08 nM.

Compound `COc1cc(-c2ccc(C3CCc4ccc([C@H](C5CC5)[C@H](C)C(=O)O)cc4O3)c(CN3[C@H](C)CC[C@@H]3C)c2)ccn1` (stereo partly shown) [Example 122] gave an EC50 of 0.7 nM. In the case of `COc1cc(-c2cc(F)c(C3CCc4ccc([C@H](C5CC5)[C@H](C)C(=O)O)cc4O3)cc2CN(C(C)C)C(C)C)ccn1` (single isomer, unassigned) [Example 184] it was 0.73 nM.
